Columns and labels:
[1] = Acute toxicity (LD50), tolerability; conditions: in vivo; species and route not given
Protocol: Im Zusammenhang mit der vorliegenden Erfindung wurde überraschend gefunden, daß Substanzen der allgemeinen Formel I wertvolle pharmakologische Eigenschaften aufweisen und insbesondere als antientzündliche Wirkstoffe eingesetzt werden können. Neben der guten Verträglichkeit - die LD50 der Verbindung aus Beispiel 1 liegt beispielsweise bei über 1000 mg/kg - zeichnen sich Verbindungen der allgemeinen Formel I durch nützliche analgetische und antipyretische Eigenschaften aus. Insbesondere eignen sich die erfindungsgemäßen Verbindungen zur Behandlung entzündlicher Erkrankungen bei Mensch und Tier. Die Krankheitsbilder, die mit den erfindungsgemäßen Verbindungen behandelt werden können, umfassen alle entzündlichen Zustände, wie zum Beispiel Entzündungen der Haut wie Radiodermatitis, Psoriasis, Akne, Ekzeme, Entzündungen am Auge wie zum Beispiel Conjunktivitis, Entzündungen im Hals-Nasen-Ohren-Bereichwie zum Beispiel katarralische Infektionen der oberen Luftwege und Sinusitis, entzündliche Erkrankungen des Gefäßsystems wie Thrombophlebitis oder Vaskulitis und Entzündungen des Nervensystems wie zum Beispiel Neuralgien oder Neuritiden. Bevorzugt zu behandelnde entzündliche Erkrankungen sind Entzündungen im Bereich des Bewegungsapparates wie Arthritiden, Arthrose, Tendinitis, Tendopathien, Kontusionen und Distorsionen, Weichteilrheumatismus, Gicht und Lumbalgien. […]

[2] = test system: Carrageenin-Lösung erzeugte Ödeme der rechten Hinterpfote; test: Carrageenan-induced paw oedema test for anti-inflammatory activity; format: in vivo, Wistar-Ratten; conditions: 200 mg/kg p.o., 30 min before carrageenan; paw volume 3 h after injection; female Wistar rats, n=10
Description: Die Prüfung auf antientzündliche Wirkung (C. A. Winter, E. A. Risley, G. W. Nuss; Proc. Soc. Exp. Biol. Med. 111, 544 (1962)) erfolgte durch mit 0.5 %iger wäßriger Carrageenin-Lösung erzeugte Ödeme der rechten Hinterpfote an Gruppen mit je zehn nüchternen, ca. 150 g schweren weiblichen Wistar-Ratten. Dazu wurden mit einem Plethysmometer die Volumina der markierten rechten Hinterpfote unmittelbar vor und drei Stunden nach der Injektion der Carrageenin-Lösung gemessen. Die zu prüfenden Substanzen wurden 30 Minuten vor Erzeugung des Ödems als Gummi arabicum Suspension mittels einer Schlundsonde p.o. verabreicht. Die Kontrollgruppe erhielt reines Leitungswasser. Die Einzeldosis pro Tier lag bei 200 mg/kg Körpergewicht.
Zur Auswertung wurde die prozentuale Zunahme des Pfotenvolumens für jedes Tier nach folgender Formel berechnet: [formula] dann wurden Mittelwerte und Streuung für alle so berechneten Werte einer Gruppe bestimmt. Der Unterschied zwischen der mit Prüfsubstanz behandelten Versuchs- und der zugehörigen unbehandelten Gruppe wurde nach der Formel [formula] ermittelt. Die statistische Auswertung erfolgte nach den üblichen Verfahren.

Row | SMILES | LD50 [1] [mg/kg] | % Hemmung [2] [%]
1 | COc1ccccc1NC(=O)CC(=O)C(C)C [Beispiel 1, N-(2-Methoxyphenyl) 4-methylpentan-3-on-säureamid] | > 1000 | 52
2 | CC(C)C(=O)CC(=O)Nc1nccs1 [Beispiel 2, N-(2-Thiazolyl)-4-methylpentan-3-on-säureamid] |  | 32
3 | COc1ccc(NC(=O)CC(=O)C(C)C)cc1 [Beispiel 3, N-(4-Methoxyphenyl)-4-methylpentan-3-on-säureamid] |  | 27
4 | COc1ccc(C)cc1NC(=O)CC(=O)C(C)C [Beispiel 4, N-(2-Methoxy-5-methylphenyl)-4-methylpentan-3-on-säureamid] |  | 26

Source: patent EP0525686A1, “Dimethylacetylacetic acid amides, process for their preparation and pharmaceutical compositions” (LUITPOLD PHARMA GmbH, priority 1991, dated 1993)
